# Data taken from patent publication US11957687B2 (REGENERON PHARMACEUTICALS, INC., priority 2019, dated 2024).
# pIC50: −log10 of the molar value.
# Target: HSD17B13 (Homo sapiens (Human), UniProt Q7Z5P4)
# Assay: HSD17B13 enzymatic inhibition assay (150 nM or 50 nM HSD17B13)
# Assay type: biochemical
# Conditions: 50 nM HSD17B13; read-out: Inhibition of 50 nM of HSD17B13 IC50
# Chain of HSD17B13 (Q7Z5P4 other isoform, or with tags, fused parts or gaps): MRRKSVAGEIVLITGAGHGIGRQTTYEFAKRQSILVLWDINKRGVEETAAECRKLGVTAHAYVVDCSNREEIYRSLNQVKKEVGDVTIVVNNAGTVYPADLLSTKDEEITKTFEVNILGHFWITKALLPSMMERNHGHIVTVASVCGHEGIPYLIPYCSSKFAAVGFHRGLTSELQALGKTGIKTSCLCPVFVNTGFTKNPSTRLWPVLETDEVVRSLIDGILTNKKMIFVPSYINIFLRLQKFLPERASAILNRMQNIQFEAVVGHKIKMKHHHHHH
row,pIC50,SMILES
1,6.72,"CCCC1=Cc2ccc(C)cc2C1NC(=O)c1ccc(C(F)(F)F)[nH]c1=O (stereo not drawn) [Compound 340, N-(6-methyl-2-propyl-1H-inden-1-yl)-2-oxo-6-(trifluoromethyl)-1,2-dihydropyridine-3-carboxamide]"
2,7.00,"CCCC1=C(NC(=O)c2ccc(C(F)(F)F)[nH]c2=O)c2ccc(C)cc2C1O (stereo not drawn) [Compound 342, N-(1-hydroxy-6-methyl-2-propyl-1H-inden-3-yl)-2-oxo-6-(trifluoromethyl)-1,2-dihydropyridine-3-carboxamide]"
3,5.20,"CC1=C(NC(=O)c2ccc(C(F)(F)F)[nH]c2=O)c2ccccc2C1=O [Compound 343, N-(2-methyl-1-oxo-1H-inden-3-yl)-2-oxo-6-(trifluoromethyl)-1,2-dihydropyridine-3-carboxamide]"
4,5.65,"CCCC1=C(NC(=O)c2ccc(C(F)(F)F)[nH]c2=O)c2ccc(C)cc2C1=O [Compound 344, N-(6-methyl-1-oxo-2-propyl-1H-inden-3-yl)-2-oxo-6-(trifluoromethyl)-1,2-dihydropyridine-3-carboxamide]"
5,5.05,"O=C(NC1CCCc2c(CO)cccc21)c1ccc(C(F)(F)F)[nH]c1=O (stereo not drawn) [Compound 345, N-(5-(hydroxymethyl)-1,2,3,4-tetrahydronaphthalen-1-yl)-2-oxo-6-(trifluoromethyl)-1,2-dihydropyridine-3-carboxamide]"
6,5.15,"O=C(NC1CCCc2c(CCO)cccc21)c1ccc(C(F)(F)F)[nH]c1=O (stereo not drawn) [Compound 346, N-(5-(2-hydroxyethyl)-1,2,3,4-tetrahydronaphthalen-1-yl)-2-oxo-6-(trifluoromethyl)-1,2-dihydropyridine-3-carboxamide]"
7,< 5.00,Cc1cccc2c1CCCC2NC(=O)c1ccc(C(F)(F)F)[nH]c1=O (stereo not drawn) [Compound 347]
8,5.01,"O=C(NC1CCCc2c(-c3ccccc3)cccc21)c1ccc(C(F)(F)F)[nH]c1=O (stereo not drawn) [Compound 348, 2-oxo-N-(5-phenyl-1,2,3,4-tetrahydronaphthalen-1-yl)-6-(trifluoromethyl)-1,2-dihydropyridine-3-carboxamide]"
9,5.85,"COc1ccc2c(c1)CCC(OC)C2NC(=O)c1ccc(C(F)(F)F)[nH]c1=O (stereo not drawn) [Compound 349, N-(2,6-dimethoxy-1,2,3,4-tetrahydronaphthalen-1-yl)-2-oxo-6-(trifluoromethyl)-1,2-dihydropyridine-3-carboxamide]"
10,6.44,"COC1CCc2cc(C)ccc2C1NC(=O)c1ccc(C(F)(F)F)[nH]c1=O (stereo not drawn) [Compound 350, N-(2-methoxy-6-methyl-1,2,3,4-tetrahydronaphthalen-1-yl)-2-oxo-6-(trifluoromethyl)-1,2-dihydropyridine-3-carboxamide]"
11,5.67,"Cc1ccc2c(c1)OC(C)C2NC(=O)c1ccc(C(F)(F)F)[nH]c1=O (stereo not drawn) [Compound 356, N-(2,6-dimethyl-2,3-dihydrobenzofuran-3-yl)-2-oxo-6-(trifluoromethyl)-1,2-dihydropyridine-3-carboxamide]"
12,5.93,"CCC[C@H]1Oc2cc(C)ccc2[C@H]1NC(=O)c1ccc(C(F)(F)F)[nH]c1=O [Compound 357, N-((2R,3R)-6-methyl-2-propyl-2,3-dihydrobenzofuran-3-yl)-2-oxo-6-(trifluoromethyl)-1,2-dihydropyridine-3-carboxamide]"
13,5.67,"CC[C@@H]1Oc2cc(C)ccc2[C@@H]1NC(=O)c1ccc(C(F)(F)F)[nH]c1=O [Compound 359, N-((2S,3S)-2-ethyl-6-methyl-2,3-dihydrobenzofuran-3-yl)-2-oxo-6-(trifluoromethyl)-1,2-dihydropyridine-3-carboxamide]"
14,5.61,"Cc1ccc2c(c1)C(NC(=O)c1ccc(C(F)(F)F)[nH]c1=O)C(C)O2 (stereo not drawn) [Compound 363, N-(2,5-dimethyl-2,3-dihydrobenzofuran-3-yl)-2-oxo-6-(trifluoromethyl)-1,2-dihydropyridine-3-carboxamide]"
15,6.22,"CC[C@@H]1C[C@@H](NC(=O)c2ccc(C(F)(F)F)[nH]c2=O)c2cc(C)ccc2N1 [Compound 364, N-((2R,4R)-2-ethyl-6-methyl-1,2,3,4-tetrahydroquinolin-4-yl)-2-oxo-6-(trifluoromethyl)-1,2-dihydropyridine-3-carboxamide]"
16,6.80,"CC[C@H]1C[C@@H](NC(=O)c2ccc(C(F)(F)F)[nH]c2=O)c2cc(C)ccc2N1 [Compound 365, N-((2S,4R)-2-ethyl-6-methyl-1,2,3,4-tetrahydroquinolin-4-yl)-2-oxo-6-(trifluoromethyl)-1,2-dihydropyridine-3-carboxamide]"
17,6.42,"CC[C@@H]1C[C@@H](NC(=O)c2ccc(C(F)(F)F)[nH]c2=O)c2ccc(C)cc2N1 [Compound 367, N-((2R,4R)-2-ethyl-7-methyl-1,2,3,4-tetrahydroquinolin-4-yl)-2-oxo-6-(trifluoromethyl)-1,2-dihydropyridine-3-carboxamide]"
18,5.85,"Cc1ccc2c(c1)[C@H](NC(=O)c1ccc(C(F)(F)F)[nH]c1=O)C[C@H](C)N2 [Compound 371, N-((2S,4R)-2,6-dimethyl-1,2,3,4-tetrahydroquinolin-4-yl)-2-oxo-6-(trifluoromethyl)-1,2-dihydropyridine-3-carboxamide]"

row,pIC50,SMILES
1,5.76,"CCN1Cc2cc(C)ccc2C(NC(=O)c2ccc(C(F)(F)F)[nH]c2=O)C1=O (stereo not drawn) [Compound 373, N-(2-ethyl-7-methyl-3-oxo-1,2,3,4-tetrahydroisoquinolin-4-yl)-2-oxo-6-(trifluoromethyl)-1,2-dihydropyridine-3-carboxamide]"
2,5.60,"Cc1ccc2c(c1)CNC(=O)C2NC(=O)c1ccc(C(F)(F)F)[nH]c1=O (stereo not drawn) [Compound 374, N-(7-methyl-3-oxo-1,2,3,4-tetrahydroisoquinolin-4-yl)-2-oxo-6-(trifluoromethyl)-1,2-dihydropyridine-3-carboxamide]"
3,5.62,"Cc1ccc2c(c1)CN(C)C(=O)C2NC(=O)c1ccc(C(F)(F)F)[nH]c1=O (stereo not drawn) [Compound 375, N-(2,7-dimethyl-3-oxo-1,2,3,4-tetrahydroisoquinolin-4-yl)-2-oxo-6-(trifluoromethyl)-1,2-dihydropyridine-3-carboxamide]"
4,5.55,"Cc1ccc2c(c1)c(NC(=O)c1ccc(C(F)(F)F)[nH]c1=O)cn2C [Compound 376, N-(1,5-dimethyl-1H-indol-3-yl)-2-oxo-6-(trifluoromethyl)-1,2-dihydropyridine-3-carboxamide]"
5,5.11,"Cc1ccc2[nH]cc(NC(=O)c3ccc(C(F)(F)F)[nH]c3=O)c2c1 [Compound 377, N-(5-methyl-1H-indol-3-yl)-2-oxo-6-(trifluoromethyl)-1,2-dihydropyridine-3-carboxamide]"
6,6.12,"Cc1ccc2[nH]c(C)c(NC(=O)c3ccc(C(F)(F)F)[nH]c3=O)c2c1 [Compound 378, N-(2,5-dimethyl-1H-indol-3-yl)-2-oxo-6-(trifluoromethyl)-1,2-dihydropyridine-3-carboxamide]"
7,5.32,"Cc1ccc2c(NC(=O)c3ccc(C(F)(F)F)[nH]c3=O)cn(C)c2c1 [Compound 379, N-(1,6-dimethyl-1H-indol-3-yl)-2-oxo-6-(trifluoromethyl)-1,2-dihydropyridine-3-carboxamide]"
8,< 5.00,"Cc1ccc2c(NC(=O)c3ccc(C(F)(F)F)[nH]c3=O)coc2c1 [Compound 380, N-(6-methylbenzofuran-3-yl)-2-oxo-6-(trifluoromethyl)-1,2-dihydropyridine-3-carboxamide]"
9,6.89,"CCCC1CC(NC(=O)c2ccc(C(F)(F)F)[nH]c2=O)c2ccc(C)cc2S1 (stereo not drawn) [Compound 381, N-(7-methyl-2-propylthiochroman-4-yl)-2-oxo-6-(trifluoromethyl)-1,2-dihydropyridine-3-carboxamide]"
10,6.89,"CCCC1CC(NC(=O)c2ccc(C(F)(F)F)[nH]c2=O)c2cc(C)ccc2S1 (stereo not drawn) [Compound 382, N-(6-methyl-2-propylthiochroman-4-yl)-2-oxo-6-(trifluoromethyl)-1,2-dihydropyridine-3-carboxamide]"
11,6.77,"Cc1ccc2c(c1)C(NC(=O)c1ccc(C(F)(F)F)[nH]c1=O)CC(C)S2 (stereo not drawn) [Compound 386, N-(2,6-dimethylthiochroman-4-yl)-2-oxo-6-(trifluoromethyl)-1,2-dihydropyridine-3-carboxamide]"
12,6.24,"COc1ccc2c(c1)CC(C)CC2NC(=O)c1ccc(C(F)(F)F)[nH]c1=O (stereo not drawn) [Compound 389, N-(6-methoxy-3-methyl-1,2,3,4-tetrahydronaphthalen-1-yl)-2-oxo-6-(trifluoromethyl)-1,2-dihydropyridine-3-carboxamide]"
13,7.30,"Cc1ccc2c(c1)CC(C)CC2NC(=O)c1ccc(C(F)(F)F)[nH]c1=O (stereo not drawn) [Compound 391, N-(3,6-dimethyl-1,2,3,4-tetrahydronaphthalen-1-yl)-2-oxo-6-(trifluoromethyl)-1,2-dihydropyridine-3-carboxamide]"
14,7.10,"CCCC1Cc2cc(OC)ccc2C(NC(=O)c2ccc(C(F)(F)F)[nH]c2=O)C1 (stereo not drawn) [Compound 392, N-(6-methoxy-3-propyl-1,2,3,4-tetrahydronaphthalen-1-yl)-2-oxo-6-(trifluoromethyl)-1,2-dihydropyridine-3-carboxamide]"
15,5.91,"Cc1ccc2c(c1)C(NC(=O)c1ccc(C(F)(F)F)[nH]c1=O)CS2 (stereo not drawn) [Compound 393, N-(5-methyl-2,3-dihydrobenzo[b]thiophen-3-yl)-2-oxo-6-(trifluoromethyl)-1,2-dihydropyridine-3-carboxamide]"
16,6.59,"Cc1ccc2c(c1)C(NC(=O)c1ccc(C(F)(F)F)[nH]c1=O)CC(C)O2 (stereo not drawn) [Compound 394, N-(2,6-dimethylchroman-4-yl)-2-oxo-6-(trifluoromethyl)-1,2-dihydropyridine-3-carboxamide]"
17,5.04,"Cc1ccc2c(c1)OCC2NC(=O)c1ccc(C(F)(F)F)[nH]c1=O (stereo not drawn) [Compound 395, N-(6-methyl-2,3-dihydrobenzofuran-3-yl)-2-oxo-6-(trifluoromethyl)-1,2-dihydropyridine-3-carboxamide]"
18,6.59,"Cc1ccc2c(c1)SCCC2NC(=O)c1ccc(C(F)(F)F)[nH]c1=O (stereo not drawn) [Compound 396, N-(7-methylthiochroman-4-yl)-2-oxo-6-(trifluoromethyl)-1H-pyridine-3-carboxamide]"
